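How tested: cells in 96-well plates exposed to compound for 48 hours at five concentrations. GI50: concentration for 50% inhibition of growth.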 Activity calls are given as the source filed them. Rule as the data show it: active = GI50 up to about 1.1 µM and inactive = higher.
Tests used:
Experiment in all cases: NCI tumour cell line growth inhibition, 48 h
786-0 = tested on: 786-0
A498 = tested on: A498
ACHN = tested on: ACHN
BT-549 = tested on: BT-549
CAKI-1 = tested on: CAKI-1
CCRF-CEM = tested on: CCRF-CEM
DU-145 = tested on: DU-145
EKVX = tested on: EKVX
HCC 2998 = tested on: HCC 2998
HOP-92 = tested on: HOP-92
K562 = tested on: K562
MDA-MB-231 = tested on: MDA-MB-231
MDA-MB-435 = tested on: MDA-MB-435
OVCAR-3 = tested on: OVCAR-3
OVCAR-5 = tested on: OVCAR-5
RPMI-8226 = tested on: RPMI-8226
SK-MEL-5 = tested on: SK-MEL-5
SNB-19 = tested on: SNB-19
SW-620 = tested on: SW-620
UACC-257 = tested on: UACC-257

Row | SMILES | GI50 (786-0) | GI50 (A498) | GI50 (ACHN) | GI50 (BT-549) | GI50 (CAKI-1) | GI50 (CCRF-CEM) | GI50 (DU-145) | GI50 (EKVX) | GI50 (HCC 2998) | GI50 (HOP-92) | GI50 (K562) | GI50 (MDA-MB-231) | GI50 (MDA-MB-435) | GI50 (OVCAR-3) | GI50 (OVCAR-5) | GI50 (RPMI-8226) | GI50 (SK-MEL-5) | GI50 (SNB-19) | GI50 (SW-620) | GI50 (UACC-257)
1 | O=C1CCCC2=C(N1)C(=O)C=CC2=O | 42.5 µM (inactive) | 43.3 µM (inactive) | 40.6 µM (inactive) | 16.7 µM (inactive) | 32.5 µM (inactive) | 10.6 µM (inactive) | 17.5 µM (inactive) | 34.4 µM (inactive) | 60.8 µM (inactive) | 22.2 µM (inactive) | 6.73 µM (inactive) | 16.7 µM (inactive) | 18.6 µM (inactive) | 43.5 µM (inactive) | 33.4 µM (inactive) | 23.9 µM (inactive) | 42.1 µM (inactive) | 44.1 µM (inactive) | 23.1 µM (inactive) | 45.2 µM (inactive)
2 | CC(C)C(CC(=O)OCC(CO)OC(=O)CC(C(C)C)C(C)C)C(C)C (stereo not given) | 12.4 µM (inactive) | 15.3 µM (inactive) | 10.9 µM (inactive) | 19.1 µM (inactive) | 12.3 µM (inactive) | 5.53 µM (inactive) | 15.4 µM (inactive) | 14 µM (inactive) | 15.8 µM (inactive) | 2.75 µM (inactive) | 6 µM (inactive) | 15.7 µM (inactive) | 13.7 µM (inactive) | 13.9 µM (inactive) | 13 µM (inactive) |  | 11.9 µM (inactive) | 14.7 µM (inactive) | 13.6 µM (inactive) | 17.1 µM (inactive)
3 | C=C(Br)C(Cl)(CBr)CCC(Br)C(C)(C)Cl (stereo not given) | 5.36 µM (inactive) | > 10 µM (inactive) | > 10 µM (inactive) | > 10 µM (inactive) | > 10 µM (inactive) | > 10 µM (inactive) | > 10 µM (inactive) | > 10 µM (inactive) | > 10 µM (inactive) | > 10 µM (inactive) | > 10 µM (inactive) | > 10 µM (inactive) | > 10 µM (inactive) | > 10 µM (inactive) | > 10 µM (inactive) | 9.2 µM (inactive) | > 10 µM (inactive) | > 10 µM (inactive) | > 10 µM (inactive) | 
4 | CC(=O)C1=C(c2ccccc2)N(C2OC(CO)C(O)C(O)C2O)C(S)=C(C#N)C1c1ccc(Cl)cc1 (stereo not given) | 27 µM (inactive) | 38.6 µM (inactive) | 29.7 µM (inactive) | 15.9 µM (inactive) | 29 µM (inactive) | 34.8 µM (inactive) | 44.8 µM (inactive) |  | 17.7 µM (inactive) | 19.7 µM (inactive) | 32.7 µM (inactive) | 28.1 µM (inactive) | 23.6 µM (inactive) | 21.6 µM (inactive) | 62.2 µM (inactive) | 29.9 µM (inactive) | 19.6 µM (inactive) | 34.9 µM (inactive) | 8.53 µM (inactive) | 25.4 µM (inactive)
5 | CCN(CC)CCn1c2cc3c(cc2c(=O)c2cccnc21)OCCO3 | > 10 µM (inactive) | 0.0912 µM (active) | 4.99 µM (inactive) | > 10 µM (inactive) | > 10 µM (inactive) | 5.46 µM (inactive) | > 10 µM (inactive) | > 10 µM (inactive) | 6.4 µM (inactive) | > 10 µM (inactive) |  | 9.51 µM (inactive) | > 10 µM (inactive) | > 10 µM (inactive) |  | > 10 µM (inactive) | > 10 µM (inactive) | > 10 µM (inactive) | 5.28 µM (inactive) | > 10 µM (inactive)
6 | CC1(CCCO)CCCCCC(C)(CCCO)C1=O (stereo not given) | > 100 µM (inactive) | > 100 µM (inactive) | > 100 µM (inactive) | > 100 µM (inactive) | > 100 µM (inactive) | > 100 µM (inactive) | > 100 µM (inactive) | > 100 µM (inactive) | > 100 µM (inactive) | > 100 µM (inactive) | > 100 µM (inactive) | > 100 µM (inactive) | > 100 µM (inactive) | > 100 µM (inactive) | > 100 µM (inactive) | > 100 µM (inactive) | > 100 µM (inactive) | > 100 µM (inactive) | > 100 µM (inactive) | > 100 µM (inactive)
7 | C=CCSSCC=C | 22.5 µM (inactive) | > 100 µM (inactive) | > 73.6 µM (inactive) | 42.3 µM (inactive) | 44.8 µM (inactive) | 1.98 µM (inactive) | > 100 µM (inactive) | > 100 µM (inactive) | > 100 µM (inactive) | 28.5 µM (inactive) | 5.5 µM (inactive) | 16.8 µM (inactive) | 32.1 µM (inactive) | 52 µM (inactive) | 51.6 µM (inactive) | 4.05 µM (inactive) | 35.4 µM (inactive) | > 100 µM (inactive) | 19.1 µM (inactive) | 32.8 µM (inactive)

Source: ChEMBL document CHEMBL1201862, “PubChem BioAssay data set” (2004)
